{"source": "patent US7638119B2", "about": "“Method of diminishing the symptoms of neurodegenerative disease” (priority 2004, dated 2009)", "key": {"[1]": {"system": "Nrf2+/+ and −/− primary cortical neuronal cultures", "test": "LDH release cytotoxicity in primary neuronal cultures treated with 3NP", "type": "cell-based, mouse", "details": "Nrf2−/− versus wild-type cultures, all doses, treated for 48", "procedure": "(§1) For primary cortical neuronal cultures, Nrf2+/− mice were bred and cultures were prepared from individual E15/16 embryos as previously described (Lee, J. M., et al., supra, 2003). Treatments were applied between day 3 and 5 in vitro. Immunostaining for β-III-tubulin and GFAP confirmed no difference in the ratio of neurons to astrocytes between genotypes (data not shown). HPAP+ cultures were prepared similarly. HPAP activity and histochemistry in primary cultures was measured as previously described (Johnson, D. A., et al., supra, 2002).\n(§2) LDH release into medium was measured using the CytoTox96 Non-Radioactive Cytotoxicity Assay kit (Promega) according to the manufacturers instructions. LDH activity was measured on both media and lysed cells. After normalizing to non-treated wells, the percentage of LDH in the media was calculated. Each measurement was made in at least triplicate on separate cultures from three individual pups. Terminal deoxynucleotidyltransferase-mediated dUTP nick end labeling (TUNEL; Roche Applied Science) staining was also performed according to the manufacturers instructions on cultures from at least two different pups per genotype.\n(§3) In order to examine the differential sensitivity of Nrf2−/− neurons to complex II inhibition, Nrf2+/+ and −/− primary cortical neuronal cultures (3 DIV) were treated with 3NP for 48 and assessed for LDH release. […]"}, "[2]": {"system": "antioxidant response element (ARE)", "test": "hPAP reporter activation after 3NP in ARE-hPAP primary neuronal cultures", "type": "cell-based, mouse", "details": "ARE-hPAP+ primary cortical neuronal cultures, neurotoxic doses, 48 hours", "excerpt": "Nrf2−/− and ARE-hPAP transgenic reporter mice were bred separately. Nrf2−/− mice were created by targeted disruption of the Nrf2 gene (Chan, K., et al., Proc. Natl. Acad. Sci. USA 93:13943-13948, 1996). ARE-hPAP reporter mice were created by insertion of a 51 basepair segment of rat NAD(P)H Quinone Oxidoreductase-1 promoter containing the core ARE into a minimal promoter upstream of the heat stable human Placental Alkaline Phosphatase (hPAP) (Johnson, D. A., et al., J. Neurochem. 81:1233-1241, 2002).\nas §1\nThis activation was localized to the surviving astrocytes (FIG. 2B) as visualized by vector red staining and GFAP co-labeling."}, "[3]": {"system": "Nrf2−/−, +/− or +/+ mice", "test": "Striatal lesions after 3NP (Fluorojade-B, cresyl violet)", "type": "in vivo, mouse", "procedure": "(§4) Nrf2−/−, +/−, or +/+ mice received i.p. injections of 50 mg/kg 3NP or vehicle every 12 hours for a total of 7 injections. 25 mg/ml 3-NP in PBS was prepared fresh and adjusted to pH 7.4 with 10M NaOH. Individual doses were diluted so that injection volume remained constant at 200 μl. Six to eight hours after the last dose mice were sacrificed as below. One Nrf2 KO mouse died prior to the seventh dose and three others had severe symptoms that were classified as stage III according to Gabrielson, et al. (Gabrielson, K. L., et al., Am. J. Pathol. 159:1507-1520, 2001).\n(§5) Mice were euthanized with CO2 and perfused with 4% paraformaldehyde. Tissues were post-fixed overnight at 4° C. and cryoprotected in 30% sucrose/PBS. Using a cryostat (Leica), adjacent coronal 20 μm and 50 μm sections were taken for staining with Fluorojade-B and cresyl violet respectively through the entire striatum. […] Lesion size was quantified using the Cavieleri Estimator (Stereoinvestigator; Microbrightfield) on sections 200 μm apart. HPAP histochemistry was measured as previously described (Johnson, D. A., et al., supra, 2002).\nAfter mice were sacrificed, brains were stained with cresyl violet or Fluorojade-B (FIG. 3C). Lesions in Nrf2−/− mice were observable using both staining methods; however, they were more apparent in the fluorojade B-stained sections; these sections were used for lesion volume quantification (FIG. 3D)."}, "[4]": {"system": "Nrf2−/−, +/− or +/+ mice", "test": "Rotarod performance after 3NP", "type": "in vivo, mouse", "details": "Nrf2−/− mice versus 3NP-injected Nrf2+/+ and heterozygous mice, four hours after last dose, 5 rpm", "procedure": "To assess sensorimotor deficits in 3NP-treated animals, mice were trained up to 5 times per day on the rotarod (Columbus Instruments) for three days prior to 3-NP administration (Fernagut, P. O., et al., Neuroscience 114:1005-1017, 2002). All mice were able to achieve 180 sec (5 rpm) on the first trial by day three. Rotarod function was measured prior to the first dose and following the last dose of 3-NP.\nFour hours after the last dose, motor skills were assessed by rotarod performance. Up to three trials were given for each mouse and the longest time spent on the rotarod was used for analysis. All PBS-injected mice were able to maintain 5 rpm for 180 sec (the maximum time allowed)."}, "[5]": {"system": "Nrf2−/−, +/− or +/+ mice", "test": "Systemic 3NP administration: phenotypic scoring, death and weight loss", "type": "in vivo, mouse", "procedure": "as §4\nWe posited that this increased sensitivity would also extend to an in vivo model. 18 week-old mice were dosed every 12 hours with 50 mg/kg 3NP. After seven doses, a clear differential sensitivity had emerged based on the subjective classification described by Gabrielson, et al. (Gabrielson, K. L., et al., supra, 2001). […] No Nrf2+/+ or Nrf2+/− mice rated above stage 1.\nTable 1: Phenotypic scoring of mice after 3NP administration. Nrf2+/+, Nrf2+/− and Nrf2−/− mice were scored Stage 0, I, II or III based on the development of clinical symptoms."}, "[6]": {"system": "Nrf2+/+ and −/− primary cortical neuronal cultures", "test": "TUNEL staining of primary neuronal cultures treated with 3NP", "type": "cell-based, mouse", "details": "2 mM 3NP, visual inspection", "procedure": "as §1, §2, §3"}, "[7]": {"system": "Nrf2−/−, +/− and +/+ mice", "details": "for Average lesion size: 0.5M malonate 1 μl intrastriatal, cresyl violet", "procedure": "(§6) Mice were anesthetized with isoflurane. […] One minute after insertion of the Hamilton syringe, the solution was administered over 2 minutes and the needle was withdrawn 2 mm per minute. ARE-hPAP+ mice were injected similarly with 0.25M (1 μl), due to differences in background strain sensitivity.\nas §5\nTen days post-injection mice were sacrified and lesion size was measured by cresyl violet staining (FIG. 4A)."}, "[8]": {"system": "antioxidant response element (ARE)", "test": "hPAP histochemistry after intrastriatal malonate in ARE-hPAP reporter mice", "type": "in vivo, mouse", "details": "48 hours after intrastriatal malonate", "procedure": "as §6, §5\nMalonate was injected intrastriatally into ARE-hPAP reporter mice. After 48 hours the mice were euthanized and hPAP histochemistry was performed. […] ARE-activated astrocytes, as visualized by GFAP immunohistochemistry, occur in a similar pattern (FIG. 5C)."}, "[9]": {"details": "Nrf2−/− mice, 50 mg/kg i.p. every 12 hours, 7 injections"}}, "note": "Where two headings read alike, the source gives them in different places."}
{"smiles": "O=C(O)CC[N+](=O)[O-]", "note": "[3NP, 3-nitropropionic acid]", "values": [{"measurement": "LDH release", "setting": "[1]", "value": "greater in the Nrf2−/− cultures than in wild-type cultures"}, {"measurement": "hPAP expression", "setting": "[2]", "value": "significantly increased"}, {"measurement": "Mice with measurable lesions", "setting": "[3]; Nrf2+/+ mice", "value": "No lesions"}, {"measurement": "Mice with measurable lesions", "setting": "[3]; Nrf2+/− mice", "value": "only one"}, {"measurement": "Mice with measurable lesions", "setting": "[3]; Nrf2−/− mice", "value": "Five of the eight"}, {"measurement": "Rotarod function", "setting": "[4]", "value": "significantly reduced function"}, {"measurement": "Mice scored Stage 0", "setting": "[5]; Nrf2+/+ mice, 50 mg/kg i.p. every 12 hours, 7 injections", "value": 5}, {"measurement": "Mice scored Stage 0", "setting": "[5]; Nrf2+/− mice, 50 mg/kg i.p. every 12 hours, 7 injections", "value": 4}, {"measurement": "Mice scored Stage 0", "setting": "[5]; [9]", "value": 1}, {"measurement": "Mice scored Stage I", "setting": "[5]; [9]", "value": 3}, {"measurement": "Mice scored Stage II", "setting": "[5]; [9]", "value": 1}, {"measurement": "Weight loss, percent of starting weight", "setting": "[5]; Nrf2−/− mice, after seven doses of 50 mg/kg", "value": "12±1.9", "unit": "%"}, {"measurement": "Death", "setting": "[5]; Nrf2−/− mice, prior to the seventh dose of 50 mg/kg", "value": "one mouse died"}, {"measurement": "TUNEL-positive neurons", "setting": "[6]; Nrf2+/+ neurons", "value": "significantly lower percentage"}, {"measurement": "TUNEL-positive neurons", "setting": "[6]; Nrf2−/− neurons", "value": "Nearly all"}]}
{"smiles": "O=C(O)CC(=O)O", "note": "[malonate]", "values": [{"measurement": "Average lesion size", "setting": "[7]; Nrf2+/+ mice, ten days post-injection", "value": "0.03±0.07", "unit": "mm^3"}, {"measurement": "Average lesion size", "setting": "[7]; Nrf2+/− mice, ten days post-injection", "value": "0.16±0.07", "unit": "mm^3"}, {"measurement": "Increase of average lesion size", "setting": "[7]; Nrf2−/− versus Nrf2+/+ mice", "value": "over 21 fold"}, {"measurement": "Increase of average lesion size", "setting": "[7]; Nrf2−/− versus Nrf2+/− mice", "value": 4, "unit": "fold"}, {"measurement": "Overt behavioral phenotype", "setting": "[7]; all genotypes, ten days post-injection", "value": "None of the mice exhibited an overt behavioral phenotype"}, {"measurement": "hPAP activity", "setting": "[8]", "value": "present near the edges of the lesion"}]}
